# Entries after “also recorded” stand apart in the source; their conditions may differ.
# How the values were obtained:
# [1] = tested on: CL2006 strain expressing human β-amyloid in muscle; test: Alzheimer's disease model: paralysis with age of CL2006 strain; format: in vivo, C. elegans; conditions: Log-rank (Mantel-Cox) test p=0.007, FIG. 12g
# From the text: In this model, GFP-labelled dopaminergic neurons die due to α-synuclein toxicity. […] We also tested two different strains of Alzheimer's disease (AD) in worms, where immobility is caused by expression of βA protein in muscle cells.
# [2] = tested on: APP-PS1 mice; test: β-amyloid deposition in frontal cortex and hippocampus (chronic AD model); format: in vivo; conditions: 3-4 weeks oral
# From the text: As STX64 ameliorated neurodegeneration in C. elegans models, we tested the effect of this drug on cognitive alterations provoked by intrahippocampal βA oligomers infusion, an acute AD mammalian model (FIG. 3i). […] To evaluate the effect of STX64 oral treatment on amyloid pathology in a chronic AD mice model, we assessed the effect of 3-4 weeks of STX64 oral treatment on amyloid deposition in the neocortex (the cerebral cortex and the hippocampus) of >15-month-old APP-PS1 mice (FIG. 4k). […] We wondered if this histological improvement correlated with amelioration of cognitive behavioural deficit. For that, we compared cognition capacities in APP-PS1 mice older than 15-month-old treated with vehicle or STX64 for 3-4 weeks.
# [3] = tested on: 16-month-old mice; test: Open Field test; format: in vivo; conditions: FIG. 20; for habituation ability: aged animals, Open Field 15 minutes
# Procedure: (§1) The “Open Field” is a test where the mouse must explore an unknown space for 15 minutes. In this test, both mobility and habituation (cognitive parameter that measures the individual's ability to recognize the environment) can be studied. On the other hand, the “Y maze” test is a test where the mouse explores the maze for 6 minutes. This test evaluates the distance traveled as a measure of mobility and the ability to visit triplets of arms without repeating any of them as a sign of immediate memory.
# [4] = tested on: 16-month-old mice; test: Y maze test; format: in vivo; conditions: aged animals, Y maze 6 minutes, FIG. 20
# Procedure: as §1
smiles,measurement,setting,value
NS(=O)(=O)Oc1ccc2c3c(c(=O)oc2c1)CCCCC3 [STX64],paralysis with age,[1],delayed paralysis; also recorded: ameliorated
same,βA deposition compared with un-treated APP-PS1 mice of 10-12 months of age,[2]; APP-PS1 mice older than 15 months,reduces βA deposition
same,βA immunoreactive area,"[2]; frontal cortex and hippocampus, >15-month-old APP-PS1 mice",reduced in both tissues
same,βA plaque density,"[2]; frontal cortex and hippocampus, >15-month-old APP-PS1 mice, 0.005 mg/ml in drink water",significant reduction
same,βA plaque size,"[2]; frontal cortex, >15-month-old APP-PS1 mice, 0.005 mg/ml in drink water",significant reduction
same,motor ability (mobility),"[3]; 16-month-old mice, Open Field mobility and Y maze distance traveled",tend to improve
same,habituation ability,[3],tend to improve
same,habituation ability,[3]; listed as STX,are improved
same,immediate memory,[4],tend to improve
same,immediate memory,[4]; listed as STX,are improved

# Reference: patent US20240108637A1, “EPITE[…] AND/OR A STEROID SULFATASE INHIBITOR FOR USE IN TREATING OR IMPROVING AGE RELATED COGNITIVE IMPAIRMENT” (U[…] DE OLAVIDE, priority 2020, published 2024)
